Results as given in PMC8881077 (Journal of Enzyme Inhibition and Medicinal Chemistry, 2022).
Read-outs that look alike come from different tables or passages of the source.

Key:
Aβ1–42 = Aβ1–42 (Homo sapiens, UniProt P05067); assay: Cu^2+-induced Aβ1–42 aggregation, ThT fluorescence; format: biochemical; details: tested compounds and Aβ1–42 25 μM
Description: Curcumin was also tested as a referenced compound.
The Thioflavin T-based flurometric assay was employed to test the inhibition potency on self-induced/Cu^2+-induced Aβ1-42 aggregation.

huAChE [1] = target: T1, huAChE (Homo sapiens, UniProt P22303); assay: biochemical; format: biochemical; design: AChE from 5% rat cortex homogenate or human erythrocytes (Sigma Co.); purchased Sigma Co; host or cells: human erythrocytes; details: for SI: Selectivity Index = IC50 (BuChE)/IC50 (AChE), human enzymes; for IC50: from human erythrocytes, read-out: IC50 ± SD huAChE
T1 sequence (P22303 32-617 isoform P22303-2 limits assumed): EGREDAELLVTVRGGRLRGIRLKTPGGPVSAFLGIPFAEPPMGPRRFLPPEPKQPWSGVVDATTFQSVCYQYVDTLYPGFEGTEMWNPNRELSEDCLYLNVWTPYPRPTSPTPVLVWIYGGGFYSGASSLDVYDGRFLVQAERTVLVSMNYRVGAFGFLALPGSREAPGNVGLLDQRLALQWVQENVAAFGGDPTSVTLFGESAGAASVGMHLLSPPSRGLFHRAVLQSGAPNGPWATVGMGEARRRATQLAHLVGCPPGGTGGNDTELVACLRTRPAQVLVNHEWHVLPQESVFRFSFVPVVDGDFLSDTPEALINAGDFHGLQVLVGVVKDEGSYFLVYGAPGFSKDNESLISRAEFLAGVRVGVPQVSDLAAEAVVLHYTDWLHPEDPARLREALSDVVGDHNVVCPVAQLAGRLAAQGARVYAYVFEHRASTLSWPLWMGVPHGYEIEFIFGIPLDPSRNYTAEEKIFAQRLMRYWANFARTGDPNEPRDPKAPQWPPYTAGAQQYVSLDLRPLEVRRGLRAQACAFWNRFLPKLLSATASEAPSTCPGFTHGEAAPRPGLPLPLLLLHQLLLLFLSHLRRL
Description: (§1) The AChE and BuChE inhibitory activities of the synthesised compounds were evaluated using the Ellman assay with slight modification. AChE from 5% rat cortex homogenate or human erythrocytes (Sigma Co.). BuChE from rat serum or human serum (Sigma Co.).

PC12 cells [2] = assay: Neuroprotective effect on H2O2-induced PC12 cells injury, MTT assay; format: cell-based; details: 100 μM H2O2, PC12 cells
huBuChE = target: T2, huBuChE (Homo sapiens, UniProt P06276); assay: biochemical; format: biochemical; details: from human serum; read-out: IC50 ± SD huBuChE
T2 construct: BuChE from rat serum or human serum (Sigma Co.); purchased Sigma Co; host or cells: human serum
T2 sequence (P06276 29-602): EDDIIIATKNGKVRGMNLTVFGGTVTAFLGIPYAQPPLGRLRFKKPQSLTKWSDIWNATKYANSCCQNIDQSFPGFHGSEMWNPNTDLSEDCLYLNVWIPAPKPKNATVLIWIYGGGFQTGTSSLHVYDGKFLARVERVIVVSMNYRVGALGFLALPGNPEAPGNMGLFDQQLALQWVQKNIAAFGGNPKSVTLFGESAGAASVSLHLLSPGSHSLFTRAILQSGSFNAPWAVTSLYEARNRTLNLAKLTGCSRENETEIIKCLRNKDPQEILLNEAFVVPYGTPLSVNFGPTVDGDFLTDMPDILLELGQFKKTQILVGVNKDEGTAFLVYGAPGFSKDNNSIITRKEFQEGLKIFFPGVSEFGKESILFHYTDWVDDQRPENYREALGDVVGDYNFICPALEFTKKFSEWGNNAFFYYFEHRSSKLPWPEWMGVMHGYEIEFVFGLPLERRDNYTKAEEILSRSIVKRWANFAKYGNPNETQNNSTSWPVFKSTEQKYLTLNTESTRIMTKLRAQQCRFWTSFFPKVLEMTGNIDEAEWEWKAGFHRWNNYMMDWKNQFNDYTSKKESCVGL
Description: as §1

ratAChE = target: T3, ratAChE (Rattus norvegicus, UniProt P37136); assay: biochemical; details: for SI: Selectivity Index = IC50 (BuChE)/IC50 (AChE), rat enzymes; for IC50: from 5% rat cortex homogenate, read-out: IC50 ± SD ratAChE
T3 construct: AChE from 5% rat cortex homogenate or human erythrocytes (Sigma Co.); from tissue; host or cells: 5% rat cortex homogenate
T3 sequence (P37136 32-614): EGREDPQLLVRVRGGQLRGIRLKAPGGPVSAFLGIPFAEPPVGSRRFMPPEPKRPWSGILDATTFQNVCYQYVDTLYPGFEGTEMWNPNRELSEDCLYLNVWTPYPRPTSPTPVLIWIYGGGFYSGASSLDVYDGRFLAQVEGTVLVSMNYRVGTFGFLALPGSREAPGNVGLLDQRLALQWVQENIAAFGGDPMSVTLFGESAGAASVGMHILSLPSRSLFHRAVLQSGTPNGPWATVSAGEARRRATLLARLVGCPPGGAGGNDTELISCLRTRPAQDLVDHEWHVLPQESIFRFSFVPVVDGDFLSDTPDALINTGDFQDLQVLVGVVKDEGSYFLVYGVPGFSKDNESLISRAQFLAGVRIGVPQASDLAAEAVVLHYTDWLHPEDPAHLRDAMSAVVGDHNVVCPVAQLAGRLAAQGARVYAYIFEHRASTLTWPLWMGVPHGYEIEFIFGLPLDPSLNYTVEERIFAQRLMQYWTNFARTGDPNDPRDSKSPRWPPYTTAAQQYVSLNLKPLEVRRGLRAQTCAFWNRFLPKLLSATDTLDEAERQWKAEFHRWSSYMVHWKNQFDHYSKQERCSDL
Description: as §1

huAChE [3] = target: T1, huAChE; assay: Enzyme kinetic study of huAChE (Lineweaver-Burk); format: biochemical; design: AChE from human erythrocytes (Sigma Co.); purchased Sigma Co; host or cells: human erythrocytes; details: for type of AChE inhibition: Lineweaver-Burk plot; for Ki: replots of slope versus concentration, read-out: inhibition constant Ki
Description: An enzyme kinetic study was applied to determine the mechanism of AChE inhibition for compounds 5f and 7k. The lineweaver-Burk double reciprocal plot was used to define the inhibition by plotting the initial velocities of the substrate at the y-axis and increasing concentrations of the substrate at the x-axis[17]^,[19]. […] […].
Figure 3. Enzyme kinetic study on the mechanism of huAChE inhibition by compounds 5f and 7k. […] (D) Representing the plots of slope versus the concentration of 7k for determining the inhibition constants Ki. […] |

huAChE [4] = target: T1, huAChE; format: biochemical; design: AChE from human erythrocytes (Sigma Co.); purchased Sigma Co; host or cells: human erythrocytes; details: for huAChE activity restored: 0.1 × IC50, at 60 min, Figure 2B; for huAChE activity increase when diluted to 0.1 × IC50: Figure 2A, dilution to 0.1 × IC50
Description: In order to further explore the reversibility of inhibition, the recovery of huAChE inhibitors inhibition after dilution was carried out with time monitoring.
Data were expressed as the mean ± SEM by three independent experiments.

PC12 cells [5] = assay: Cytotoxicity on PC12 cells, MTT assay; format: cell-based; details: 40 μM
SPF Kunming mice = assay: Acute toxicity; format: in vivo
Description: Kunming mice at a body weight of 18–22 g (six weeks old, either gender) were supplied by the Centre of Experimental Animals of Sichuan Academy of Chinese Medicine Sciences (eligibility certification no. SCXK-Chuan2018-19). Mice were maintained under standard conditions with a 12 h:12 h light-dark cycle at 20−22 °C with a relative humidity of 60 − 70%. Sterile food and water were provided according to institutional guidelines. Prior to each experiment, mice were fasted overnight and allowed free access to water. […] After the administration of the compound 5f, the mice were observed continuously for the first 4 h for any abnormal behaviour and mortality changes, intermittently for the next 24 h, and occasionally thereafter for 14 days for the onset of any delayed effects. All animals were sacrificed on the 14th day after drug administration and were macroscopically examined for possible damage to the heart, liver, and kidneys.

[6] = tested on: scopolamine-induced mice memory impairment; assay: Step-down passive avoidance task; details: scopolamine 3 mg/kg
Description: Sixty mice were randomly divided into six groups. […] After 30 min, memory impairment was induced by administering scopolamine (3 mg/kg).

Aβ1–42, sequence (P05067 672-713): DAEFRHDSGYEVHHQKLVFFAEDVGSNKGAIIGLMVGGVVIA

Molecule | SI (huAChE [1]) | IC50 (huAChE [1]) [nM] | IC50 (huBuChE) [nM] | SI (ratAChE) | IC50 (ratAChE) [nM] | type of AChE inhibition (huAChE [3]) | Ki (huAChE [3]) [nM] | reversibility of huAChE inhibition (huAChE [4]) | huAChE activity (% control) (huAChE [4]; 0.1*IC50, diluted) | huAChE activity restored (huAChE [4]) [%] | huAChE activity (% control) (huAChE [4]; 1*IC50, diluted) | huAChE activity (% control) (huAChE [4]; 1*IC50, undiluted) | huAChE activity increase when diluted to 0.1 × IC50 (huAChE [4]) [%] | cytotoxicity on PC12 cells (PC12 cells [5]) | further results
7-((6-(benzyl(ethyl)amino)hexyl)oxy)-2–(4-((6-(benzyl(ethyl)amino)hexyl)oxy)phenyl)-5-hydroxychroman-4-one [Compound 7k] | 14.4 | 570 ± 20 | 8200 ± 370 | 18.7 | 790 ± 60 | mixed-type | 390 | reversible | 61.2 | 96.8 | 53.4 | 52.6 | 7.8 | did not show any cytotoxicity | Inhibition of Aβ1–42 aggregation, Cu^2+-induced (%) (Aβ1–42): 68.7 ± 0.46%; cell viability (PC12 cells [2]; compound 2.5 μM): 58.3%; cell viability (PC12 cells [2]; compound 5.0 μM): 63.7%; cell viability (PC12 cells [2]; compound 10.0 μM): 69.8%
CCN(CCCCCOc1cc(O)c2c(c1)OC(c1ccc(O)cc1)CC2=O)Cc1ccccc1 (stereo not drawn) [Compound 5f, 7-((5-(benzyl(ethyl)amino)pentyl)oxy)-5-hydroxy-2–(4-hydroxyphenyl)chroman-4-one] | 6.9 | 910 ± 20 | 6300 ± 740 | 9.9 | 1700 ± 80 | mixed-type | 740 | reversible | 55.6 | 89.8 | 48.7 | 47.9 | 6.9 | did not show any cytotoxicity | inhibition at 25 µM (Aβ1–42): 73.5 ± 0.25%; acute toxicity, recovery (SPF Kunming mice; after 24h): returned to normal; acute toxicity, heart, liver, spleen, lung and kidney (SPF Kunming mice; after 7 days): no abnormalities were observed; acute toxicity, observed signs (SPF Kunming mice; dose of 500 mg/kg, intragastric): decreased spontaneous activity and movement, drowsiness, dyspnoea and reduced breathing rate; viability at 2.5 µM (PC12 cells [2]; Rattus norvegicus, PC-12, compound 2.5 μM, read-out: cell viability): 62.9%; viability at 5 µM (PC12 cells [2]; Rattus norvegicus, PC-12, compound 5.0 μM, read-out: cell viability): 68.2%; viability at 10 µM (PC12 cells [2]; Rattus norvegicus, PC-12, compound 10.0 μM, read-out: cell viability): 73.4%; step-down latency ([6]; 1.9 mg/kg): 153.7 s; step-down latency ([6]; 5.7 mg/kg): 183.4 s; step-down latency ([6]; 17.1 mg/kg): 207.8 s
